Data set [1] deals with Human bone marrow cells from healthy volunteers. Kind of data set: Human HSPC self renewal, methyl cellulose colony re-plating. It counts as cell-based. The following applies: colonies counted after eight days and re-plated until control HSPCs exhausted. The procedure:
The human bone marrow cells from healthy volunteers were grown in methyl cellulose in the presence and absence of the compound 1-17 and colony number were counted after eight days in culture and re-plated till control HSPCs were completely exhausted. A. The number of colony and B. the total cellular output.
Human bone marrow cells from healthy volunteers were grown in methyl cellulose in the presence and absence of the compound 1-17 and colony number were counted after eight days in culture and re-plated till control HSPCs were completely exhausted.

Data set [2] has as its target T1, recombinant human CD38 full length protein (Homo sapiens, UniProt P28907).
T1 construct: The recombinant human CD38 full length protein UniProtKB - P28907 (CD38_HUMAN); His-tag (inferred from the pET28a vector and IMAC purification); made in house
T1 sequence (P28907 1-300): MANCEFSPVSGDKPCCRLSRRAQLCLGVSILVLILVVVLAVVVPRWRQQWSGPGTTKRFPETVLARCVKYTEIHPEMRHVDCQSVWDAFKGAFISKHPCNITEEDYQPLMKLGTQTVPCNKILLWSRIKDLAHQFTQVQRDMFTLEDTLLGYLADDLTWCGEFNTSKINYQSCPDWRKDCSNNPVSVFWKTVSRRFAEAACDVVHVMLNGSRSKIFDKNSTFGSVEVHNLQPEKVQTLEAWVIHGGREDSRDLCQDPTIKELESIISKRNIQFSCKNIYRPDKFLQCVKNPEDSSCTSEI
Kind of data set: β-NAD+ degradation assay (HPLC, C18). It counts as biochemical. The following applies: purified full length wild type recombinant CD38 incubated with NAD+. The procedure:
FIGS. 3A-3D provides graphs showing Compound 1-17 inhibits CD38 and protects NAD degradation in vitro. Full length wild type recombinant CD38 was expressed and purified and incubated with NAD and high-performance liquid chromatographic assay using C18 were used to quantify NAD degradation. A. chromatogram with vehicle, B. CD38 incubation for 4 hours at room temperature C.
The recombinant human CD38 full length protein UniProtKB - P28907 (CD38_HUMAN) was cloned into pET28a and purified using IMAC column followed by gel filtration on SephacrylS200. The purified protein (10 µg/ml) was incubated with varying amount of NAD+ in assay buffer ([…], 5 mM MgCl2 at pH 7.0) at 25° C. for 3 hours, reaction was stopped by heat inactivation followed by acetone precipitation of protein the supernatant was vacuum dried and dissolved in water and loaded onto reverse phase C18 column and eluted with a gradient of 0-25% of acetonitrile in water.
Full length wild type recombinant CD38 was expressed and purified and incubated with NAD+ and high-performance liquid chromatographic assay using C18 were used to quantify NAD+ degradation.

Data set [3] concerns undifferentiated normal human fibroblast (NHFB). Kind of data set: Cell proliferation assay, fibroblast life span. It counts as cell-based. Here is the method:
FIGS. 4A and 4B provide graphs showing NAD protection by compound 1-17 extend life span of undifferentiated normal human fibroblast (NHFB) under in-vitro cell culture conditions. NHFB were either A. young (<8 doubling time) or B. old (>10 doublings) cell cultures were treated with indicated amount of 1-17 in complete growth media.
NHFB were either young (<8 doubling time) (FIG. 4A) or old (>10 doublings) (FIG. 4B). Cell cultures were treated with the indicated amount of 1-17 in complete growth media.

The subject of data set [4] is murine bone marrow cells from C57bl6 mice. As to the kind of experiment: Mouse HSPC self renewal, methyl cellulose colony re-plating. It counts as cell-based. Here is the method: FIGS. 5A and 5B provide graphs showing Treatment of 1-17 to murine bone marrow expands the colony forming hematopoietic stem cells. The murine bone marrow cells from C57BL6 mice were grown in methyl cellulose in the presence and absence of the compound 1-17 and colony number were counted every week and re-plated. A. The number of colony and B. the total cellular output.
The murine bone marrow cells from C57bl6 mice were grown in methyl cellulose in the presence and absence of compound 1-17. Colony numbers were counted every week and re-plated.
FIG. 5 provides graphs showing that treatment with compound 1-17 increases mouse HSPC self-renewal. […] Additionally, as shown in FIG. 5B directed to total cellular output, cells also proliferate far longer than the vehicle control, maintaining population for an average of 1 to 2 passes after control.

For data set [5], the system named is Total Human bone marrow, isolated CD34+ HSPCs, LTC-IC. As to the kind of experiment: Stem cell function, total cellular output in culture. It counts as cell-based. Here is the method: Total Human bone marrow A, isolated CD34+ HSPCs B, and long-term culture initiating hematopoietic cells (LTC-IC) C, were grown in the presence and absence of the compound 1-17 and the total cellular output was determined. Compound 1-17 is synergistic with NAD treatment.
Total Human bone marrow, isolated CD34+ HSPCs, and long-term culture initiating hematopoietic cells (LTC-lC), were grown in the presence and absence of compound 1-17 and the total cellular output was determined.

For data set [6], the system named is healthy murine bone marrow. As to the kind of experiment: Treatment of healthy mice, hematopoiesis. The following applies: 40 mg/kg. Format: in vivo. The procedure: The effects of CD38 inhibitor 1-17 and its analogues on hematopoiesis of healthy murine bone marrow were tested. […] Experiments were conducted to determine whether treatment with compound 1-17 has impact on blood counts and NAD+ levels in cells. The inventors treated 9 mice which were sacrificed at 2, 5 and 12 week and blood counts, marrow morphology and cellularity and bone marrow colony formation per 10^6 cell were determined in colony forming assays.

The structures appear in SMILES notation. Entries after “also recorded” stand apart in the source; their conditions may differ.

Take `O=C(Nc1cccc2cc(C(F)(F)F)ccc12)c1cc(CCCF)ccc1O` [Compound 1-11]: in data set [1], the “colony forming hematopoietic stem and progenitor cells (HSPCs)” value is “expands the colony forming hematopoietic stem and progenitor cells (HSPCs)”.
On to `Cl.NCCc1ccc(O)c(C(=O)Nc2cccc3ccccc23)c1` [Compound 1-17, 5-(2-Aminoethyl)-2-hydroxy-N-(naphthalen-1-yl)benzamide], for which the “inhibition of CD38 NAD+ degradation” value in data set [2] is “inhibits CD38 and protects NAD+ degradation in vitro; also recorded: Dose dependent inhibition of CD38”. In addition, in data set [3] (NHFB treated with indicated amount of compound), the doubling time entry is given as “significantly increased in a dose dependent fashion”. For the same compound, the “life span of NHFB in culture” value in data set [3] (young (<8 doubling time) or old (>10 doublings) NHFB, complete growth media) is on record as “extends the life span”. Also, in data set [4] (mouse bone marrow in methyl cellulose, counted every week and re-plated), the “self-renewal of HSPCs in colony numbers and overall cell counts” value was “markedly increased”. In addition, the “passes for which population is maintained after control” value in data set [4] (total cellular output, versus vehicle control) was in the range of 1 to 2 passes. In addition, the “colony forming hematopoietic stem and progenitor cells (HSPCs)” value in data set [1] is “expands the colony forming hematopoietic stem and progenitor cells (HSPCs)”. The “combination with NAD treatment” value in data set [5] (cell culture, total cellular output) is “synergies with NAD treatment”. The “long term hematopoietic stem cells, total cellular output” value in data set [5] (total human bone marrow, CD34+ HSPCs, LTC-IC in culture) is on record as “expands long term hematopoietic stem cells in cell culture”. The “efficacy and tolerability of treatment dose” value in data set [6] was “effective and well tolerated”.

For the origin of these results see patent US20230331663A1, “SMALL MOLECULE NICOTINAMIDE ADENINE DINUCLEOTIDE MODULATORS” (THE CLEVELAND CLINIC FOUNDATION, priority 2020, published 2023).
